Data from patent US20110093959A1, “CRYPTOTIS PARVA SCREENING MODEL FOR ANTIEMETIC POTENTIAL” (priority 2008, published 2011).

Key:
Assay type in all cases: in vivo, Cryptotis parva
[1] = system: SP-induced emesis in the Least Shrew; assay: Antagonist interaction study against SP (50 mg/kg, i.p.)-induced emesis; details: antagonist 10 mg/kg i.p., 30 min before SP 50 mg/kg i.p.
Text: The present protocols were based upon preliminary studies as well as published findings in the Least Shrew. Darmani, 2001a; Darmani et al., 69 Pharmacol. Biochem. Behay. 239-49 (2001b). On the test day, the shrews were allowed to acclimate to the test laboratory for at least one hour prior to experimentation. To habituate the animals to the test environment, each shrew was randomly selected and transferred to a 20 cm×18 cm×21 cm clean clear plastic cage and offered four mealworms (Tenebrio sp.) 30 min prior to experimentation. […]
For the above drug interaction studies, different doses (i.p.) of either CP99,994 (0, 5, 10, and 20 mg/kg, n=10-14 shrews per group); L733060 (0, 5, 10, and 20 mg/kg, n=10-14 shrews per group), GR159897 (0 mg/kg and 20 mg/kg, n=8 per group) or SB218795 (0 or 20 mg/kg, n=7-8 per group) were administered to different groups of shrews 30 min prior to injection of an emetic dose (5 mg/kg, i.p.) of the NK1-receptor agonist GR73632. Emesis and scratchings were recorded for 30 min immediately following GR73632 administration as described above. […]
The data on the frequency of emesis and scratchings were analyzed by the Kruskal-Wallis (KW) nonparametric one-way analysis of variance (ANOVA) and post hoc analysis by Dunn's multiple comparisons test or Mann-Whitney test. […]

[2] = system: GR73632-induced emesis and scratching in the Least Shrew; assay: Antagonist interaction study against GR73632 (5 mg/kg, i.p.)-induced emesis and scratching
Text: The present protocols were based upon preliminary studies as well as published findings in the Least Shrew. Darmani, 2001a; Darmani et al., 69 Pharmacol. Biochem. Behay. 239-49 (2001b). On the test day, the shrews were allowed to acclimate to the test laboratory for at least one hour prior to experimentation. To habituate the animals to the test environment, each shrew was randomly selected and transferred to a 20 cm×18 cm×21 cm clean clear plastic cage and offered four mealworms (Tenebrio sp.) 30 min prior to experimentation.
The latter doses of SP and GR73632 were chosen for subsequent antagonist interaction studies to pharmacologically characterize the role of NK1 receptors in the mediation of induced emesis by the use of: (1) two selective neurokinin NK1 receptor antagonists (CP99,994 and L733060) (Watson et al., 115 Br. J. Phramacol. 84-94 (1995); Guiard et al., 89 J. Neurochem. 54-63 (2004)); (2) an NK2 receptor antagonist (GR159897) (Beresford et al., 272 Eur. J. Pharmacol. 241-48 (1995)); and (3) an NK3 receptor antagonist (SB218795) (Salthun-Lassalle et al., 1995).
For the above drug interaction studies, different doses (i.p.) of either CP99,994 (0, 5, 10, and 20 mg/kg, n=10-14 shrews per group); L733060 (0, 5, 10, and 20 mg/kg, n=10-14 shrews per group), GR159897 (0 mg/kg and 20 mg/kg, n=8 per group) or SB218795 (0 or 20 mg/kg, n=7-8 per group) were administered to different groups of shrews 30 min prior to injection of an emetic dose (5 mg/kg, i.p.) of the NK1-receptor agonist GR73632. Emesis and scratchings were recorded for 30 min immediately following GR73632 administration as described above. The antiemetic effect of CP99,994 (0, 5, and 10 mg/kg, n=9-10 animals per group) was also investigated in a similar manner against SP (50 mg/kg, i.p.)-induced emesis.
The data on the frequency of emesis and scratchings were analyzed by the Kruskal-Wallis (KW) nonparametric one-way analysis of variance (ANOVA) and post hoc analysis by Dunn's multiple comparisons test or Mann-Whitney test. A P value of <0.05 was necessary to attain statistical significance. The incidence of emesis (number of shrews vomiting) was analyzed by the Fisher's exact test to determine whether there were differences between groups. When appropriate, pairwise comparisons were also made by this method. Two-way analysis of variance using the Kruskal-Wallis or Fisher's exact tests were initially utilized to respectively analyze the dose-response results of GR73632 on emesis and scratching behaviors, and percentage of shrews vomiting in saporin- and corresponding saline-pretreated control shrews. […] For some emesis data, the two-tailed Mann-Whitney test was used. The SP tissue concentration data were analyzed by a one-way ANOVA followed by Dunnett's t test as post hoc analysis. Fos-IR was quantified by counting immunopositive nuclei within each hemisection containing the region of interest (ROI). The number of nuclei was averaged across sections with the ROI for each animal, and the group mean and standard error obtained.

[3] = system: LTC4-induced emesis in the Least Shrew; assay: CysLT1 antagonists against leukotriene LTC4-induced emesis; details: dose-dependent
Experimental: Emetic parameters were recorded for 30min post emetic injection.

| Structure (SMILES) | attenuation of the frequency of SP-induced emesis [1] [%] | shrews protected from SP-induced emesis [1] [%] | reduction in frequency of GR73632-induced emesis ([2]; antagonist 5 mg/kg i.p.) [%] | reduction in percentage of shrews vomiting in response to GR73632 ([2]; antagonist 5 mg/kg i.p.) [%] | reduction in frequency of GR73632-induced emesis ([2]; antagonist 10 mg/kg i.p.) [%] | reduction in percentage of shrews vomiting in response to GR73632 ([2]; antagonist 10 mg/kg i.p.) [%] | reduction in frequency of GR73632-induced emesis ([2]; antagonist 20 mg/kg i.p.) [%] | reduction in percentage of shrews vomiting in response to GR73632 ([2]; antagonist 20 mg/kg i.p.) [%] | reduction in the frequency of scratching ([2]; antagonist 5, 10, and 20 mg/kg, failed to attain significance) | onset of first emesis induced by GR73632 ([2]; at highest tested effective antiemetic doses) | prevention of LTC4-induced emesis [3] |
| --- | --- | --- | --- | --- | --- | --- | --- | --- | --- | --- | --- |
| COc1ccccc1CN[C@H]1CCCN[C@H]1c1ccccc1 (relative stereo) [CP99,994, (2S, 3S)-Cis-3 (2-methoxybenzylamino-2-phenylpiperidine)] | 84 | 70 | 61 | 2.9 | 87 | 60 | 97 | 73 | up to 49% | only delayed the onset of first emesis | – |
| O=C(Nc1cccc2c(=O)cc(-c3nnn[nH]3)oc12)c1ccc(OCCCCc2ccccc2)cc1 [Pranlucast, 4-Oxo-8-[(4-phenylbutoxy)benzoylamino]-2-(tetrazol-5-yl)-4H-1-benzopyran] | – | – | – | – | – | – | – | – | – | – | prevent LTC4-induced emesis completely |
| COc1cc(C(=O)NS(=O)(=O)c2ccccc2C)ccc1Cc1cn(C)c2ccc(NC(=O)OC3CCCC3)cc12 [zafirlucast] | – | – | – | – | – | – | – | – | – | – | prevent LTC4-induced emesis completely |
